Test results reported in patent US5219884A, “Immunosuppressant” (Taito Co., Ltd., priority 1990, dated 1993).
Where two headings read alike, the source gives them in different places.

Assays:
[1] = tested on: IL3 production in mouse allogenic MLC; assay: suppression of IL3 production in mouse allogenic MLC; assay type: cell-based; details: for inhibition at 0.01 µg/mL / inhibition at 0.1 µg/mL / inhibition at 1 µg/mL / inhibition at 10 µg/mL: Mus musculus, read-out: Suppression
Procedure: The supernatant of mouse allogenic MLC and the supernatant of PHA-stimulated mouse spleen cells culture were prepared in the same manner as in Experimental Example 6.
The IL3 activity in the supernatant described above was assayed as follows: IL3-dependent mouse cell line FDC-P2 cells were suspended in the RPMI1640 culture medium supplemented with 10% FCS to the concentration of 10^5 cells/ml, and 100 μl of the suspension was added to each well of 96-well microculture plates in which 100 μl per well of the two-fold serial dilutions of the supernatant described above had been placed. After culturing at 37° C. in an atmosphere of 5% carbon dioxide for 20 hours, 0.5 μCi/well of ^3 H-thymidine was added, and cultured for further 4 hours under the same conditions. After termination of the culture, the cells were harvested by a cell harvester, and the radioactivity incorporated into the cells was measured by a liquid scintillation counter. The IL3 activity was expressed in U/ml as the titer at the concentrations at which the amount of ^3 H-thymidine incorporated was 50% of the maximum.

[2] = tested on: alloreactive cytotoxic T cells (EL4 target cells); assay: suppression of induction of alloreactive cytotoxic T cells in mouse allogenic MLC (51Cr release); assay type: cell-based
Procedure: The spleen cells suspension, 0.5 ml, (2×10^7 cells/ml) of BALB/c mouse (H-2^d) prepared in the same way as in Experimental Example 1, 0.5 ml of a suspension of mitomycin C-treated C57BL/6 mouse (H-2^b) spleen cells (2×10^7 cell/ml) and 1.0 ml of the test substance were added to 24-well multidishes, and cultured at 37° C. in an atmosphere of 5% carbon dioxide for 6 days.
After termination of the culture, the cells were harvested by centrifugation, and the concentration of the cell suspension was adjusted to 5×10^6 -6.25×10^5 cells/ml by using the RPMI1640 culture medium supplemented with 10% FCS, and used as the effector cell suspension.
The target cells used were leukemia cells EL4 from the syngenic (H-2^b) C57BL/b mouse as used for preparation of the stimulator cells. By incubating 10^6 EL4 cells in the presence of 100 μCi of Na2^51 CrO4 (1 mCi/ml) at 37° C. for 1 hour to incorporate ^51 Cr into the cytoplasm. The cell were washed, adjusted to the concentration of 10^4 cells/ml and used as the target cell suspension.
For the assay of the cytotoxic activity, 0.1 ml of the effector cell suspension and 0.1 ml of the target cell suspension were added to 96-well flat-bottomed plates, and cultured at 37° C. for 4 hours. The amount of ^51 Cr released into the supernatant was determined and the cytotoxic activity was calculated by the following formula. [formula]

[3] = tested on: mouse spleen cells stimulated with phytohemagglutinin (PHA); assay: suppression of blastogenic response of mouse spleen cells by PHA; assay type: cell-based; details: PHA (1/100); for inhibition at 0.01 µg/mL / inhibition at 0.1 µg/mL / inhibition at 1 µg/mL: Mus musculus, 76 h
Procedure: (§1) The effect on the mouse blastogenic response of mouse spleen cells stimulated with phytohemagglutinin (PHA) or with pokeweed mitogen (PWM) was examined as follows:
(§2) The spleen was resected from 5- to 8-week-old male […] BALB/c mice, and single cell suspension of spleen cells was prepared by using the RPMI1640 culture medium supplemented with 5% FCS. After hemolytic treatment, the concentration of the suspension was adjusted to 5×10^6 cells/ml by using the RPMI1640 culture medium supplemented with 10^-4 M 2-mercaptoethanol and 20% FCS, to which PHA or PWM was added. One hundred μl of the cell suspension was added to each well of 96-well microculture plates to which 100 μl per well of the test solution had been added (5×10^5 mouse spleen cells per well). After culturing at 37° C. in an atmosphere of 5% carbon dioxide for 72 hours, 0.5 μCi/well of ^3 H-thymidine was added and cultured under the same conditions for further 4 hours. After termination of the culture, the cells were harvested by a cell harvester, and the radioactivity incorporated into the cells was measured by a liquid scintillation counter, which was used as the index of blastogenic response of mouse spleen cells.

KATOIII = assay: in vitro; assay type: cell-based, human
[4] = tested on: mouse spleen cells stimulated with pokeweed mitogen (PWM); assay: suppression of blastogenic response of mouse spleen cells by PWM; assay type: cell-based; details: for inhibition at 0.01 µg/mL / inhibition at 0.1 µg/mL / inhibition at 1 µg/mL: Mus musculus, 76 h; for inhibition at 0.1 µg/mL: read-out: Suppression
Procedure: as §1, §2

[5] = 0.1 μg/ml, effector:target 25:1
[6] = 0.1 μg/ml, effector:target 50:1
[7] = 0.1 μg/ml, effector:target 100:1

| Compound | IL3 activity ([1]; 0.01 μg/ml) [U/ml] | IL3 activity ([1]; 0.1 μg/ml) [U/ml] | IL3 activity ([1]; 1 μg/ml) [U/ml] | IL3 activity ([1]; 10 μg/ml) [U/ml] | inhibition at 0.01 µg/mL [1] [%] | Amount of 51Cr release [2, 5] [cpm] | Amount of 51Cr release [2, 6] [cpm] | Amount of 51Cr release [2, 7] [cpm] | inhibition at 0.01 µg/mL ([3]; 0.01 μg/ml) [%] | inhibition at 0.1 µg/mL ([3]; 0.1 μg/ml) [%] | inhibition at 1 µg/mL ([3]; 1 μg/ml) [%] | 3H-thymidine uptake ([3]; 0.01 μg/ml) [cpm] | 3H-thymidine uptake ([3]; 0.1 μg/ml) [cpm] | 3H-thymidine uptake ([3]; 1 μg/ml) [cpm] | Absorbancy (KATOIII; 0.1 μg/ml) | Absorbancy (KATOIII; 1.0 μg/ml) | Absorbancy (KATOIII; 10.0 μg/ml) | Absorbancy (KATOIII; 100.0 μg/ml) | inhibition at 0.01 µg/mL ([4]; PWM (1/100), 0.01 μg/ml) [%] | inhibition at 1 µg/mL ([4]; PWM (1/100), 1 μg/ml) [%] | further results |
| --- | --- | --- | --- | --- | --- | --- | --- | --- | --- | --- | --- | --- | --- | --- | --- | --- | --- | --- | --- | --- | --- |
| CCCCCCC(=O)CCCCCC/C=C/CC1OC(=O)C(N)(CO)C1O (stereo not shown) [Example 4] | 26.0 | 16.0 | 8.6 | 6.1 | 29.3 | 767 | 780 | 761 | 34.5 | 57.8 | 71 | 6074 | 4312 | 3308 | 0.407 | 0.401 | 0.319 | 0.009 | 41.4 | 77.1 | inhibition at 0.1 µg/mL ([1]; 0.1 μg/ml): 56.5%; inhibition at 1 µg/mL ([1]; 1 μg/ml): 76.6%; inhibition at 10 µg/mL ([1]; 10 μg/ml): 83.4%; Cytotoxic activity [2, 5]: 0%; Cytotoxic activity [2, 6]: 0%; Cytotoxic activity [2, 7]: 0%; inhibition at 0.1 µg/mL ([4]; PWM (1/100), 0.1 μg/ml): 75.1%; 3H-thymidine uptake ([4]; PWM (1/100), 0.01 μg/ml): 19335 cpm; 3H-thymidine uptake ([4]; PWM (1/100), 0.1 μg/ml): 9325 cpm; 3H-thymidine uptake ([4]; PWM (1/100), 1 μg/ml): 8712 cpm |
| CCCCCCC(=O)CCCCCC/C=C/CC(O)C(O)C(N)(CO)C(=O)O (stereo not shown) [Example 1] | 13.9 | 12.1 | 9.8 | < 2 | 62.2 | 764 | 773 | 771 | 71.9 | 66.8 | 92.4 | 3238 | 3624 | 1686 | 0.972 | 0.961 | 0.869 | 0.041 | 61 | 84.5 | inhibition at 0.1 µg/mL [1]: 67.1%; inhibition at 1 µg/mL [1]: 73.4%; inhibition at 10 µg/mL [1]: > 95%; Amount of 51Cr release ([2]; 0.01 μg/ml, effector:target 25:1): 816 cpm; Amount of 51Cr release ([2]; 0.01 μg/ml, effector:target 50:1): 783 cpm; Amount of 51Cr release ([2]; 0.01 μg/ml, effector:target 100:1): 808 cpm; Absorbancy (KATOIII; 0.01 μg/ml): 0.990; inhibition at 0.1 µg/mL [4]: 73.2%; 3H-thymidine uptake ([4]; PWM (1/100), 0.01 μg/ml): 13499 cpm; 3H-thymidine uptake ([4]; PWM (1/100), 0.1 μg/ml): 9895 cpm; 3H-thymidine uptake ([4]; PWM (1/100), 1 μg/ml): 6529 cpm |
